Results as given in patent US20240059755A1, “NANOLIPOPROTEIN-POLYPEPTIDE CONJUGATES AND COMPOSITIONS, SYSTEMS, AND METHODS USING SAME” (Genentech, Inc., priority 2020, published 2024).

Tested on: trypsin
Experiment: Trypsin enzymatic assay (L-Arg-AMC substrate)
Type: biochemical
Description: Briefly, the peptide NLP conjugates were incubated at the indicated concentration with trypsin (2 nM) for 30 min at room temperature. The substrate L-Arginine-7-amido-4-methylcoumarin (L-Arg-AMC) (75 μM) was added to the mixture and the proteolytic activity was measured immediately. Samples were run in triplicate and repeated twice. The data were analyzed using KaleidaGraph software.

`CCCCCCCCCCCCCCCC(=O)NCCCC[C@H](N)C(=O)NCC(=O)N[C@@H](CO)C(=O)NCC(=O)N[C@@H](CO)C(=O)NCC(=O)N[C@H]1CSSC[C@@H]2NC(=O)CNC(=O)[C@H](C)NC(=O)[C@H](CC(C)C)NC(=O)[C@@H]3CSSC[C@@H](C(=O)NCC(=O)O)NC(=O)[C@H](Cc4ccccc4)NC(=O)CNC(=O)[C@H](CC(N)=O)NC(=O)[C@@H]4CCCN4C(=O)CNC(=O)[C@H](CSSC[C@H](NC(=O)[C@H](CCCNC(=N)N)NC(=O)[C@H](CCSC)NC(=O)[C@H](CC(C)C)NC(=O)[C@H]([C@@H](C)CC)NC(=O)[C@H](CCCNC(=N)N)NC(=O)[C@@H]4CCCN4C1=O)C(=O)N[C@@H](CCCCN)C(=O)N[C@@H](CCC(N)=O)C(=O)N[C@@H](CC(=O)O)C(=O)N[C@@H](CO)C(=O)N[C@@H](CC(=O)O)C(=O)N3)NC(=O)[C@H](C(C)C)NC2=O` [CKP-C16] was tested, and the trypsin inhibitory activity was “inhibitory potency”.
